# In PMC4948780, “PARP Inhibitors in Clinical Use Induce Genomic Instability in Normal Human Cells” (PLoS ONE, 2016):
# Experiments:
# MCF-10A [1] = test: Chromosomal aberrations on metaphase spreads (Giemsa); type: cell-based, human; details: 1 μM, 24 hrs
# Experimental: (§1) To prepare metaphase spreads, exponentially growing cells were treated with 0.1–0.3 μg/ml of colcemid for 1–6 hr. Cells were collected and incubated in hypotonic solution (0.56% KCl), fixed in methanol: acetic acid (3:1), spotted to slides and air-dried. To measure chromosomal aberrations, the slides were stained with 2% Giemsa/Sorensen’s buffer. To visualize SCEs, the doubling time for each cell type was determined. Cells were incubated with 10 μM BrdU for two cell cycles. After metaphase spreads were prepared, the slides were treated with 0.5 μg/ml Hoechst 33258. The slides were exposed to black light for 20–60 min, incubated at 60°C for 2 hr, and stained in 4–10% Giemsa/Sorensen’s buffer.
# human cells = test: Olaparib cytotoxicity on continuous exposure, summary over cell types; type: cell-based; details: typical value over cell types
# Description: (§2) Human mammary epithelial cell lines used included non-tumorigenic diploid MCF-10A, HMEC-hTERT and tumorigenic MDA-MB-468 (basal) and MCF-7 (luminal). […] Blood samples were obtained from normal donor participants. The participants provided written informed consent to IRB protocol #95–054 approved by the Institutional Review Board at MSKCC. The original signed consent is then sent to the research participant’s medical record and a copy of the consent is given to the participant. The EBV-transformed B-lymphocyte cell line (EBV-BL) was generated by transformation of peripheral blood mononuclear cells (PBMC) with the B95.8 strain of EBV, as previously described. Primary T cells were generated from PBMC from two normal donors by non-specific activation with phytohemagglutinin and cultured in RPMI1640 and human serum AB for 4–14 days before use. E14 mES cell line was provided by M. Hooper, Brca1^-/- 236.44 mES cell line was provided by B. H. Koller, Brca2^lex1/lex2 mES cell line was provided by P. Hasty and Lexicon Genetics. E14 wild-type, Brca1^-/- 236.44, and Brca2^lex1/lex2 mES cell lines were cultured in standard ES media. Brca1^-/- 236.44 cells express a BRCA1 peptide deleted for sequences encoded by exon 11 [52], while Brca2^lex1/lex2 cells express a BRCA2 peptide deleted for the terminal exon 27 [53]. […] Viable cells were scored by trypan blue exclusion.
# [2] = tested on: repair-proficient human cells; test: Chromatid-type aberrations, summary over the human cell types; type: cell-based
# Experimental: as §1
# HMEC-hTERT [3] = test: Sister chromatid exchange (SCE) assay, BrdU differential staining; type: cell-based, human; details: 1 μM, 30.5 hr
# Description: (§3) Human mammary epithelial cell lines used included non-tumorigenic diploid MCF-10A, HMEC-hTERT and tumorigenic MDA-MB-468 (basal) and MCF-7 (luminal). […] Blood samples were obtained from normal donor participants. The participants provided written informed consent to IRB protocol #95–054 approved by the Institutional Review Board at MSKCC. The original signed consent is then sent to the research participant’s medical record and a copy of the consent is given to the participant. The EBV-transformed B-lymphocyte cell line (EBV-BL) was generated by transformation of peripheral blood mononuclear cells (PBMC) with the B95.8 strain of EBV, as previously described. Primary T cells were generated from PBMC from two normal donors by non-specific activation with phytohemagglutinin and cultured in RPMI1640 and human serum AB for 4–14 days before use. E14 mES cell line was provided by M. Hooper, Brca1^-/- 236.44 mES cell line was provided by B. H. Koller, Brca2^lex1/lex2 mES cell line was provided by P. Hasty and Lexicon Genetics. E14 wild-type, Brca1^-/- 236.44, and Brca2^lex1/lex2 mES cell lines were cultured in standard ES media. Brca1^-/- 236.44 cells express a BRCA1 peptide deleted for sequences encoded by exon 11 [52], while Brca2^lex1/lex2 cells express a BRCA2 peptide deleted for the terminal exon 27 [53]. Olaparib was synthesized in the MSKCC Organic chemistry core facility. Veliparib and BSI-201 were purchased from Chemie Tek. The compounds were dissolved in DMSO and PBS. For clonogenic survival assays, MCF-10A (1000 cells), HMEC-hTERT (1000 cells), MDA-MB-468 (1500 cells) and mouse ES cell (2000 cells) were seeded, vehicle control or inhibitors were added at the indicated concentration 24 hours after seeding and changed every three days for continuous treatment. At 7–14 days, colonies were fixed with methanol and stained with Giemsa. For EBV-BL (6 × 10^6) and primary T cells (3.6 × 10^6) were continuously exposed to the indicated concentration of drug for 10 days at 0.6 × 10^6 cells/ml. Viable cells were scored by trypan blue exclusion.
# as §1
# MCF-7 = test: as above; type: cell-based, human; details: 1 μM, 66.5 hr
# Description: as §3, §1
# primary T cell 1 = test: as above; type: cell-based, human; details: 1 μM, 99 hr
# Description: as §3, §1
# MCF-10A [4] = test: as above; type: cell-based, human
# Description: as §3, §1
# EBV-BL = test: as above; type: cell-based, human
# Description: as §3, §1
# MDA-MB-468 [5] = test: as above; type: cell-based, human; details: 1 μM, 40 hr
# Description: as §3, §1
# primary T cell 2 = test: as above; type: cell-based, human; details: 1 μM, 70 hr
# Description: as §3, §1
# HMEC-hTERT [6] = test: Clonogenic survival assay; type: cell-based; details: Homo sapiens, read-out: IC50 of olaparib, continuous exposure
# Description: as §2
# MDA-MB-468 [7] = test: Clonogenic survival assay; type: cell-based; details: Homo sapiens, read-out: IC50 of olaparib, continuous exposure
# Description: as §2
structure (smiles),measurement,setting,value
O=C(c1cc(Cc2n[nH]c(=O)c3ccccc23)ccc1F)N1CCN(C(=O)C2CC2)CC1 [olaparib],total chromatid-type aberrations / metaphase (mean ± SEM),MCF-10A [1],0.22 ± 0.05
same,chromatid-type radial chromosome,MCF-10A [1]; 100 metaphases,0
same,chromatid-type telomere association,MCF-10A [1]; 100 metaphases,1
same,chromosome-type dicentric,MCF-10A [1]; 100 metaphases,0
same,chromosome-type gap/break,MCF-10A [1]; 100 metaphases,3
same,total chromatid-type aberrations,"MCF-10A [1]; 100 metaphases, radial and telomere association counted as two",22
same,IC50,human cells,> 2000 nM
same,increase of chromatid aberrations,[2]; clinically relevant doses (abstract),2-6 fold
same,radial chromosomes identified,"[2]; olaparib-treated cells, all cell types (1 in untreated)",12
same,Mean no. SCE / chromosome ± SD,HMEC-hTERT [3],1.30 ± 0.22
same,Mean no. SCE / metaphase ± SD,HMEC-hTERT [3],59.7 ± 10.0
same,Mean no. SCE / metaphase ± SD,MCF-7,152.4 ± 21.9
same,Mean no. SCE / chromosome ± SD,primary T cell 1,0.90 ± 0.20
same,Mean no. SCE / metaphase ± SD,primary T cell 1,41.3 ± 9.3
same,Mean no. SCE / metaphase ± SD,MCF-10A [4]; 0.1 μM,33.0 ± 4.9
same,Mean no. SCE / metaphase ± SD,MCF-10A [4]; 0.5 μM,52.2 ± 9.8
same,Mean no. SCE / chromosome ± SD,"MCF-10A [4]; 1 μM, 30 hr",1.57 ± 0.24
same,Mean no. SCE / metaphase ± SD,"MCF-10A [4]; 1 μM, 30 hr",73.5 ± 10.9
same,Mean no. SCE / metaphase ± SD,EBV-BL; 0.1 μM,26.0 ± 6.4
same,Mean no. SCE / metaphase ± SD,EBV-BL; 0.5 μM,36.2 ± 7.4
same,Mean no. SCE / chromosome ± SD,"EBV-BL; 1 μM, 87 hr",1.13 ± 0.23
same,Mean no. SCE / metaphase ± SD,"EBV-BL; 1 μM, 87 hr",51.6 ± 10.6
same,Mean no. SCE / chromosome ± SD,MDA-MB-468 [5],1.97 ± 0.38
same,Mean no. SCE / metaphase ± SD,MDA-MB-468 [5],107.9 ± 21.0
same,Mean no. SCE / chromosome ± SD,primary T cell 2,0.94 ± 0.21
same,Mean no. SCE / metaphase ± SD,primary T cell 2,43.0 ± 9.7
same,IC50,HMEC-hTERT [6],5500 nM
same,IC50,MDA-MB-468 [7],600 nM
